Measurements taken from ChEMBL document CHEMBL1201862, “PubChem BioAssay data set” (2004).
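All cell lines were grown in 96-well plates and treated with compound for 48 hours. GI50 marks 50% less growth.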 Active and inactive are the calls of the source. Rule as the data show it: active = GI50 up to about 1.1 µM and inactive = higher.

Legend:
Experiment in all cases: growth of human tumour cells (NCI), 48 h
RXF 631 = test system: RXF 631
LXFL 529 = test system: LXFL 529
HOP-18 = test system: HOP-18
KM-20L2 = test system: KM-20L2
DMS-273 = test system: DMS-273
M19-MEL = test system: M19-MEL
XF498 = test system: XF498
DLD-1 = test system: DLD-1
SNB-78 = test system: SNB-78

Compound | GI50 (RXF 631) | GI50 (LXFL 529) | GI50 (HOP-18) | GI50 (KM-20L2) | GI50 (DMS-273) | GI50 (M19-MEL) | GI50 (XF498) | GI50 (DLD-1) | GI50 (SNB-78)
C=CCN(N=O)C(=O)N(CCC)CCCCC(NC(C)=O)C(=O)NCc1ccccc1 (stereo not drawn) | > 100 µM (inactive) | 62.5 µM (inactive) | > 100 µM (inactive) | 91.6 µM (inactive) | > 100 µM (inactive) | 56 µM (inactive) | > 100 µM (inactive) |  | 
COc1cc2c(c(OC)c1OC)-c1ccc(SC)c(=O)cc1C(CC(=O)Oc1cccc(C#N)c1)C2 (stereo not drawn) |  | 0.516 µM (active) | > 100 µM (inactive) | 0.208 µM (active) | 0.2 µM (active) | 0.303 µM (active) | 0.316 µM (active) | 0.388 µM (active) | 0.57 µM (active)
CC(=O)Nc1ccc(C(=O)NN2C(=O)C(Cl)C2c2ccc(O)cc2)cc1 (stereo not drawn) |  | > 100 µM (inactive) |  | > 100 µM (inactive) | > 100 µM (inactive) | > 100 µM (inactive) | 52.8 µM (inactive) | > 100 µM (inactive) | > 100 µM (inactive)
CCc1cc(Cc2ccc(C)c(NC(=O)C(=O)C3C(=O)NC(=O)NC3=O)c2CC)cc(C)c1NC(=O)C(=O)C1C(=O)NC(=O)NC1=O | > 100 µM (inactive) | > 100 µM (inactive) |  | > 100 µM (inactive) | > 100 µM (inactive) | > 100 µM (inactive) |  | > 100 µM (inactive) | > 100 µM (inactive)
Cc1c(C(=O)CSc2nc3ccccc3[nH]2)c(=O)n(-c2ccccc2)n1C |  | > 100 µM (inactive) |  | > 100 µM (inactive) | > 100 µM (inactive) | > 100 µM (inactive) | > 100 µM (inactive) | > 100 µM (inactive) | > 100 µM (inactive)
C=C1C(=O)OC2/C=C(\CO)C3OC3C3OC3(C)CC(OC(=O)/C(=C/C)COC(C)=O)C12 (stereo not drawn) |  | 0.805 µM (active) | 9.79 µM (inactive) | 6.17 µM (inactive) | 3.12 µM (inactive) | 1.88 µM (inactive) | 1.8 µM (inactive) | 1.11 µM (active) | 1.73 µM (inactive)
CC1=CC(=O)NP(=O)(C23CC4CC(CC(C4)C2)C3)N1 (stereo not drawn) | > 100 µM (inactive) | > 100 µM (inactive) | > 100 µM (inactive) | > 100 µM (inactive) | > 100 µM (inactive) | > 100 µM (inactive) | > 100 µM (inactive) | > 100 µM (inactive) | > 100 µM (inactive)
CC(=O)Nc1ccccc1-c1cnc2ccccc2n1 |  | > 100 µM (inactive) | > 100 µM (inactive) | > 100 µM (inactive) |  | > 100 µM (inactive) | 29.6 µM (inactive) | > 100 µM (inactive) | > 100 µM (inactive)
CC(=O)C(O)N1C(=O)C=CC1=O (stereo not drawn) | 18.7 µM (inactive) | 1.82 µM (inactive) | 25.3 µM (inactive) |  | 14.7 µM (inactive) | 5.89 µM (inactive) | 17.3 µM (inactive) | 1.88 µM (inactive) | 16.9 µM (inactive)
Cc1cc(NS(=O)(=O)c2ccc(NC(=O)c3ccc(Cl)c4c(Nc5ccc(S(N)(=O)=O)cc5)c5ccccc5nc34)cc2)no1 | 21.6 µM (inactive) | 15.9 µM (inactive) | 30.1 µM (inactive) | 24.5 µM (inactive) | 21.5 µM (inactive) | 20 µM (inactive) | 19.5 µM (inactive) | 21.7 µM (inactive) | 36.8 µM (inactive)
O=C1OC(O)C(Oc2c(Cl)cccc2Cl)=C1Cl (stereo not drawn) |  | 16.6 µM (inactive) | 19.1 µM (inactive) | 17.8 µM (inactive) | 15.8 µM (inactive) |  |  | 15.7 µM (inactive) | 36.1 µM (inactive)
Cn1c(=O)c2nc(N3CCOCC3)cnc2n(C)c1=O |  | > 100 µM (inactive) |  | > 100 µM (inactive) | > 100 µM (inactive) | > 100 µM (inactive) | > 100 µM (inactive) | > 100 µM (inactive) | > 100 µM (inactive)
CCCCP1(=O)C=CC(Cl)=C(C)C1 (stereo not drawn) |  | > 100 µM (inactive) | > 100 µM (inactive) | > 100 µM (inactive) |  | > 100 µM (inactive) |  | > 100 µM (inactive) | > 100 µM (inactive)
N#CC1=C(N)N2C(=O)/C(=C/c3ccccc3)SC2C(c2nc3ccccc3[nH]2)=C1c1ccccc1 (stereo not drawn) |  | 2.49 µM (inactive) |  | 2.75 µM (inactive) | 2.07 µM (inactive) | 2.88 µM (inactive) | 2.11 µM (inactive) | 3.26 µM (inactive) | 2.52 µM (inactive)
CC(NCCS(=O)(=O)O)C(=O)O (stereo not drawn) |  |  | > 100 µM (inactive) | > 100 µM (inactive) | > 100 µM (inactive) | > 100 µM (inactive) | > 100 µM (inactive) | > 100 µM (inactive) | 99.8 µM (inactive)
Cc1ccc(C(=O)NCc2ccccc2)cc1/N=N/N(C)C |  | 47.5 µM (inactive) |  | 65.9 µM (inactive) | > 100 µM (inactive) | > 100 µM (inactive) |  | > 100 µM (inactive) | > 100 µM (inactive)
COc1ccc2nc(NC(=O)C(=O)C(C(=O)c3ccccc3-c3ccccc3)C3OC(=O)c4ccccc43)sc2c1 (stereo not drawn) | 26.6 µM (inactive) | 13.5 µM (inactive) |  | 25.1 µM (inactive) |  | 15.1 µM (inactive) | 21.5 µM (inactive) | 18.7 µM (inactive) | 35 µM (inactive)
Cc1c(/C=N/NC(=O)c2ccccc2)c(=O)n(-c2ccccc2)n1C |  | > 100 µM (inactive) | > 100 µM (inactive) | > 100 µM (inactive) | > 100 µM (inactive) | > 100 µM (inactive) | > 100 µM (inactive) | > 100 µM (inactive) | > 100 µM (inactive)
CCCCN(CCCC)/C(=N\C#N)NCc1ccccc1 |  | 15.4 µM (inactive) | 46.6 µM (inactive) | 22 µM (inactive) | 24.6 µM (inactive) | 19 µM (inactive) |  | 23.8 µM (inactive) | 26.5 µM (inactive)
OCCCCOC(c1ccccc1)(c1ccccc1)c1ccccc1 |  | > 100 µM (inactive) |  | > 100 µM (inactive) | > 100 µM (inactive) |  | > 100 µM (inactive) | > 100 µM (inactive) | > 100 µM (inactive)
CCOC(=O)CNC1C(NC(C)=O)C(OC)OC2COC(c3ccccc3)OC21 (stereo not drawn) | > 100 µM (inactive) | > 100 µM (inactive) | > 100 µM (inactive) | > 100 µM (inactive) | > 100 µM (inactive) | > 100 µM (inactive) |  |  | > 100 µM (inactive)
COc1cc(Br)c(CC2(C#N)c3ccccc3C3C(N2C(=O)c2ccccc2)C3(Cl)Cl)cc1OC (stereo not drawn) |  | 4.01 µM (inactive) | > 65.5 µM (inactive) | > 65.5 µM (inactive) | 2.69 µM (inactive) |  | > 65.5 µM (inactive) | 19.3 µM (inactive) | > 65.5 µM (inactive)
